Earlier results, collected in patent US20030100472A1, “Detergent tablet compositions” (Unilever Home & Personal Care USA, Division of Conopco, Inc., priority 2001, published 2003).
Where two headings read alike, the source gives them in different places.

Compound | Water Solubility (g/100 g) (at 20° C., other materials) | Water Solubility (g/100 g) (grams of solid required to form a saturated solution in 100 grams of water at 20° C., highly water-soluble materials)
O=P(O)(O)OP(=O)(O)OP(=O)(O)O [Sodium tripolyphosphate anhydrous] | 15 | –
O=BO[O-].[Na+] [Sodium perborate anhydrous] | 3.7 | –
NC(N)=O [Urea] | – | >100
